The numbers were not newly measured in article PMC10340494, “Sweeteners’ Influence on In Vitro α-Glucosidase Inhibitory Activity, Cytotoxicity, Stability and In Vivo Bioavailability of the Anthocyanins from Lingonberry Jams” (Foods, 2023), which cites them from elsewhere.

The subject of one series is sucrase. The arrangement: method as in PMID 18615280.
The next series concerns maltase. The arrangement: method as in PMID 18615280.

Structures are written as SMILES.

Take `OC[C@H]1O[C@@H](Oc2cc3c(O)cc(O)cc3[o+]c2-c2ccc(O)c(O)c2)[C@H](O)[C@@H](O)[C@H]1O` [cyanidin-3-galactoside]: the Inhibition of sucrase in the series with sucrase is listed as 64%. Moreover, the Inhibition of maltase with maltase was 35%.
